According to ChEMBL document CHEMBL1148672, “Mimicking the biological activity of diazobenzo[b]fluorene natural products with electronically tuned diazofluorene analogs” (2006):
Active and inactive are the calls of the source. The calls are words filed in the database; no cut-off is given here.

Key:
Nucleic Acid [1] = assay: Conversion of type 1 supercoiled DNA to type 2 nicked DNA in presence of dithiothreitol; format: nucleic-acid assay; design: concentration or dose not given beside the values
Nucleic Acid [2] = assay: Conversion of type 1 supercoiled DNA to type 2 nicked DNA; format: nucleic-acid assay; design: concentration or dose not given beside the values
Nucleic Acid [3] = assay: Cleavage of supercoiled DNA plasmid pBR322 after 2 days in presence of dithiothreitol; format: nucleic-acid assay
Nucleic Acid [4] = assay: Cleavage of supercoiled DNA plasmid pBR322 after 2 days; format: nucleic-acid assay
Nucleic Acid [5] = assay: Cleavage of supercoiled DNA plasmid pBR322 after 2 days in presence of NADPH; format: nucleic-acid assay
Nucleic Acid [6] = assay: Conversion of type 1 supercoiled DNA to type 2 nicked DNA in presence of dithiothreitol relative to Kinamycin D; format: nucleic-acid assay
HeLa [7] = assay: Antiproliferative activity against HeLa cells at 100 nM; format: functional, cell-based; settings: Homo sapiens
Nucleic Acid [8] = assay: Cleavage of supercoiled DNA plasmid pBR322 after 2 days in presence of sodium cyanide; format: nucleic-acid assay
HeLa [9] = assay: Antiproliferative activity against HeLa cells at 100 nM after 12 hrs; format: functional; settings: Homo sapiens

| SMILES | Activity (Nucleic Acid [1]) | Activity (Nucleic Acid [2]) | Activity (Nucleic Acid [4]) | further results |
| --- | --- | --- | --- | --- |
| [N-]=[N+]=C1c2ccccc2-c2c(Cl)cccc21 | < 5% | < 5% |  |  |
| CC(=O)O[C@@H]1c2c(c3c(=O)c4cccc(O)c4c(=O)c=3c2=[N+]=[N-])[C@H](O)[C@@H](OC(C)=O)[C@]1(C)O | 28% | < 5% | inactive | Activity (Nucleic Acid [3]): Time-dependent effect |
| COc1ccc(OC)c2c1C(=[N+]=[N-])c1ccccc1-2 | 9% | < 5% |  |  |
| COc1cccc2c1C(=[N+]=[N-])c1ccccc1-2 | 41% | 11% |  | Activity (Nucleic Acid [5]): inactive; Activity (Nucleic Acid [6]): 150%; Activity (HeLa [7]): Time-dependent effect; Activity (Nucleic Acid [8]): inactive; inhibition at 0.1 µM (HeLa [9]): 35% |
| [N-]=[N+]=C1c2ccccc2-c2cccc(Cl)c21 | < 5% | < 5% |  |  |
| COc1cccc2c1C(=O)c1ccccc1-2 |  |  | inactive |  |
| [N-]=[N+]=C1c2ccccc2-c2cccc([N+](=O)[O-])c21 | < 5% | < 5% |  |  |
| [N-]=[N+]=c1c2c(=O)ccc(=O)c=2c2ccccc12 | 10% | < 5% |  |  |
| Nc1cccc2c1-c1ccccc1C2=O |  |  | inactive |  |
| [N-]=[N+]=C1c2ccccc2-c2ccccc21 | < 5% | < 5% |  |  |
| COc1cccc2c1-c1ccccc1C2=[N+]=[N-] | 13% | < 5% |  |  |
| [N-]=[N+]=C1c2ccccc2-c2c1cccc2[N+](=O)[O-] | < 5% | < 5% |  |  |
| [N-]=[N+]=C1c2ccccc2-c2c(N)cccc21 | 18% | 44% | Active | Activity (Nucleic Acid [3]): Active; Activity (Nucleic Acid [6]): 64% |
